Reference: ChEMBL document CHEMBL1201862, “PubChem BioAssay data set” (2004)
Calls of active or inactive are those of the source.

Tests used:
[1] = biological target: T1, Heat shock factor protein 1 (Mus musculus, UniProt P38532); assay: HSF1 potentiators in luciferase reporter cells, confirmation, cell-based, NIH3T3, luminescence, dose retest (AID 435004); format: functional;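 further: stress induced by proteasome inhibitor MG132 added 30 min after compound; luciferase reporter driven by HSF1 response element in NIH3T3 cells; actives raise luminescence as potentiators of the MG132 stress response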
T1 sequence (P38532 whole entry): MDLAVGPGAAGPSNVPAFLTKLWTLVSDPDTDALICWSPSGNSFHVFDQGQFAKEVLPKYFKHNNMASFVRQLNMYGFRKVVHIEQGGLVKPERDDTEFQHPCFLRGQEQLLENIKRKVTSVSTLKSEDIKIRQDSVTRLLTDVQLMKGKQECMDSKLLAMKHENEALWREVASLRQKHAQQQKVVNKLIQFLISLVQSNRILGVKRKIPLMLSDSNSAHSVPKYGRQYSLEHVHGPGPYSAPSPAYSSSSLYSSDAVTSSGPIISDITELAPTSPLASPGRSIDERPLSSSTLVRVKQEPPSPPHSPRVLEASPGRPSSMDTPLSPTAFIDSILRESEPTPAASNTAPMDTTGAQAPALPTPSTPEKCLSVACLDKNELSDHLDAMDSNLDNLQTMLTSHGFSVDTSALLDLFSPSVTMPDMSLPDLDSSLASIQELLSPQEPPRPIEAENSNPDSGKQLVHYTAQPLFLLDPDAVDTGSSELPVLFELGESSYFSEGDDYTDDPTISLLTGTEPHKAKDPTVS

Cytochrome P450 3A4 = Cytochrome P450 3A4 (Homo sapiens, UniProt P08684);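 further: CYP3A4 tested as one member of a cytochrome P450 panel screen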
Sequence of Cytochrome P450 3A4 (P08684 whole entry): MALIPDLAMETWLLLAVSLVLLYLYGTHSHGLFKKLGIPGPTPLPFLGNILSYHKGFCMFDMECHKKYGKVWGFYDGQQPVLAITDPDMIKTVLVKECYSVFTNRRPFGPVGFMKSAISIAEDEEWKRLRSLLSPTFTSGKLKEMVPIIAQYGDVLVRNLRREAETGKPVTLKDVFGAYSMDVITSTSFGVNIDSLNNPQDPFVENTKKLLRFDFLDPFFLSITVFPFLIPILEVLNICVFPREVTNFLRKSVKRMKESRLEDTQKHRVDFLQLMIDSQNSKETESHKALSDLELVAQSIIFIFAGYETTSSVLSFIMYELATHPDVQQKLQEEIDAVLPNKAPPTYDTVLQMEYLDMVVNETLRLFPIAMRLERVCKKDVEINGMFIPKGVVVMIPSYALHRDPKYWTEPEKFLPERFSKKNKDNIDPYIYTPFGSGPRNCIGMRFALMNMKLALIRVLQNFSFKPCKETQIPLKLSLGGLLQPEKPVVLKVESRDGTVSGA

Cytochrome P450 2C9 = Cytochrome P450 2C9 (Homo sapiens, UniProt P11712)
Sequence of Cytochrome P450 2C9 (P11712 whole entry): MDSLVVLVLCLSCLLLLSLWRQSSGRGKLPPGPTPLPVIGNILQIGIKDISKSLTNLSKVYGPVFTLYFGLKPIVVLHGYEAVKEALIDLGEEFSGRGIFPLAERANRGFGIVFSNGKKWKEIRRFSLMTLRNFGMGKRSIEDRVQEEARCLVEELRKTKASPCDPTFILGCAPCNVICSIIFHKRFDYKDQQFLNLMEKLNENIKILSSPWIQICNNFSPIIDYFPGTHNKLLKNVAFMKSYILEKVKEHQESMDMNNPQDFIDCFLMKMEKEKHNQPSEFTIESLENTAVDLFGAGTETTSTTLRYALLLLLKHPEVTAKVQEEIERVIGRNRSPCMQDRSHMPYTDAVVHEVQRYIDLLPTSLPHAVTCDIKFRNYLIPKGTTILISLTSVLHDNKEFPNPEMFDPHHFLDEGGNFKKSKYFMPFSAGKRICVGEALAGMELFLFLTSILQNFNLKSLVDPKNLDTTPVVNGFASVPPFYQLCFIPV

Cytochrome P450 2C19 = Cytochrome P450 2C19 (Homo sapiens, UniProt P33261); assay: Cytochrome panel assay with activity outcomes. Panel member name: p450-cyp2c19 Compounds with AC50 equal or less than 10 uM are considered active; format: functional; settings: read-out: AC50
Sequence of Cytochrome P450 2C19 (P33261 whole entry): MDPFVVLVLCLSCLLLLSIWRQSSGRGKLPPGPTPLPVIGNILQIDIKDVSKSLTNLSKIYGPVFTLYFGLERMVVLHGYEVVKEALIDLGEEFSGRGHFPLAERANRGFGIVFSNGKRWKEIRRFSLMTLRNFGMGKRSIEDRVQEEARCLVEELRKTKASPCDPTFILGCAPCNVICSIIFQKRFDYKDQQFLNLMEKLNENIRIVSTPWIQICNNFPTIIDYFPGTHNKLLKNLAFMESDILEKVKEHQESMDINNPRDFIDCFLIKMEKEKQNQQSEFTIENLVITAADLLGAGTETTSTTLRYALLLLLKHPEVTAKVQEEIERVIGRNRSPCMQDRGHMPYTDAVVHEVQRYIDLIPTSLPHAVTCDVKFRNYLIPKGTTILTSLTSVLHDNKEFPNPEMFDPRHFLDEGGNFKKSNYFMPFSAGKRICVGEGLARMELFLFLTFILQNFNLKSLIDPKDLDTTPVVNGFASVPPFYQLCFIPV

Streptococcus = assay: Group A Streptococcus viability loss, dose response, counter-screen for streptokinase expression inhibitor project, luminescence, BacTiterGlo (AID 1915); format: functional, organism-based;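 further: potency for reduction of bacterial viability or growth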
[2] = system: Streptococcus sp. 'group A'; assay: growth inhibition of control SK(-) GAS strain, dose response, counter-screen for streptokinase expression inhibitor project, luminescence, kanamycin, BacTiterGlo, confirmation (AID 1900); format: functional, organism-based
Paired box protein Pax-8 = Paired box protein Pax-8 (Homo sapiens, UniProt Q06710); assay: inhibitors of PAX8-driven TPO luciferase reporter, dose response, RMG-I cells, cherry-pick (AID 687027); format: functional, cell-based;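 further: luciferase reporter driven by Pax8 target thyroperoxidase promoter measured by SteadyGlo luminescence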
Sequence of Paired box protein Pax-8 (Q06710 whole entry): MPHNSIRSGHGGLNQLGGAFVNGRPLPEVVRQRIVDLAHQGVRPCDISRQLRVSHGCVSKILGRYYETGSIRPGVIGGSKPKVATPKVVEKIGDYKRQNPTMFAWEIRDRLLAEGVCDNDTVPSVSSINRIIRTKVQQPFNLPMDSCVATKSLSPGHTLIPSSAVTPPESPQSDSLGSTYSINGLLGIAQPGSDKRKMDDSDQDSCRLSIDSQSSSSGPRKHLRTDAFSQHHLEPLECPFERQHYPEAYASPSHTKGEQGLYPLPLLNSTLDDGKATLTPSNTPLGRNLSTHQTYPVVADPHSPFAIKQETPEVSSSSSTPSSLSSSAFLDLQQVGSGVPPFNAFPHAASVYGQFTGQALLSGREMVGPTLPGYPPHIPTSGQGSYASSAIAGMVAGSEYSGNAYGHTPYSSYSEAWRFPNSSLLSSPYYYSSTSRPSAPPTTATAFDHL

Protein RecA = biological target: T2, Protein RecA (Mycobacterium tuberculosis, UniProt P9WHJ3); assay: Fluorescence Cell-Free Homogeneous Dose Retest to Identify Inhibitors of RecA-Intein Splicing Activity. [Related pubchem assays (depositor defined):AID2097, AID2223, AID489010, AID492950]; format: functional
T2 sequence (P9WHJ3 whole entry): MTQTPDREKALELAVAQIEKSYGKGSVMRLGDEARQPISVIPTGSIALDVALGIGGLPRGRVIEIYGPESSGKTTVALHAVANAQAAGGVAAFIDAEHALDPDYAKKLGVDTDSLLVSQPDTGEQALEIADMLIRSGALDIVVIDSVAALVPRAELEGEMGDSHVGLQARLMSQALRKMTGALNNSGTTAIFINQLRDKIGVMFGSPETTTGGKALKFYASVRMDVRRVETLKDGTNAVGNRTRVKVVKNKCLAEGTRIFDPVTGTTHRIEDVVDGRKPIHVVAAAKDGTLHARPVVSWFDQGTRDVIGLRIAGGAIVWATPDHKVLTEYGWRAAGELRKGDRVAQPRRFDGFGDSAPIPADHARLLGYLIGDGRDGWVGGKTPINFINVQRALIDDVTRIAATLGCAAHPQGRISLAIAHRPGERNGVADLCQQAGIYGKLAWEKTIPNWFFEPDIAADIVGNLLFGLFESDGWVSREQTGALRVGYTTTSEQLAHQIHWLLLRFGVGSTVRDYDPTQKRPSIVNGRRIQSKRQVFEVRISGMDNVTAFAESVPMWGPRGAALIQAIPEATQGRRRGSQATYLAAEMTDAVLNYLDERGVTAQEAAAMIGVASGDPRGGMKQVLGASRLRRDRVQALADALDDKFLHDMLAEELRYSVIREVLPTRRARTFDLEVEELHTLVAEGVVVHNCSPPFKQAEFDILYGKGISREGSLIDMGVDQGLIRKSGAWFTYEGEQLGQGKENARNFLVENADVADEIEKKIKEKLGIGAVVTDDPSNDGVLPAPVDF

[3] = biological target: T3, Replicative DNA helicase DnaB (Mycobacterium tuberculosis, UniProt P9WMR3); assay: DnaB intein splicing inhibitors, dose response, biochemical, cell-free fluorescence (AID 449749); format: functional
T3 sequence (P9WMR3 whole entry): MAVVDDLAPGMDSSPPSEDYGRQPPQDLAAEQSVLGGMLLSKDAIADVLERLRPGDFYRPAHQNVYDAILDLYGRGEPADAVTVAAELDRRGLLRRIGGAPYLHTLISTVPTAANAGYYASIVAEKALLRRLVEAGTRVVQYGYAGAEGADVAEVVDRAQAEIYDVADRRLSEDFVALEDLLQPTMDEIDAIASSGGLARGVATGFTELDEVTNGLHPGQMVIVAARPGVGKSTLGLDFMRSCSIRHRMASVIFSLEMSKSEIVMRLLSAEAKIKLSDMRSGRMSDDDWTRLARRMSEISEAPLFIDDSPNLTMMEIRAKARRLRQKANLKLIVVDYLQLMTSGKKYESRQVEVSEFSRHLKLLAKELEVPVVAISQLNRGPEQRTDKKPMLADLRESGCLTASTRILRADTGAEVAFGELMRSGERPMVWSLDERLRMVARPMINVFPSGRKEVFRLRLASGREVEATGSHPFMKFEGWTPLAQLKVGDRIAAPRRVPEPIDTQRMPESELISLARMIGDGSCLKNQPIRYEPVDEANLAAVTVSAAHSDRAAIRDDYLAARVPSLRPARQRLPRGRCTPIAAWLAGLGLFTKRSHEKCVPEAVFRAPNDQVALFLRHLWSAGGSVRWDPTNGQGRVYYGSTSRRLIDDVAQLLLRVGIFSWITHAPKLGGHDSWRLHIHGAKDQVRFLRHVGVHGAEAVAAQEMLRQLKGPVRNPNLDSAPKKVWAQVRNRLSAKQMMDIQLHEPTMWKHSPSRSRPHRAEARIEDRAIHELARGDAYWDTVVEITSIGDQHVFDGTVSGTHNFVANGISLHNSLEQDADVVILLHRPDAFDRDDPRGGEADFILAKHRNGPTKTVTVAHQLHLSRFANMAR

[4] = cytotoxicity toward NIH3T3 fibroblasts, dose response, counter-screen, cell-based, ATP luminescence, mouse fibroblasts (AID 2010); format: functional;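 further: cells exposed to compound for about 90 hours before reading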
[5] = inhibitors of intracellular T. cruzi replication, confirmation, NIH3T3 host cells, beta-gal luminescence (AID 2044); format: functional, cell-based;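 further: intracellular parasites grown in NIH/3T3 mouse fibroblasts as host cells; luminescent beta-galactosidase reporter signal from transgenic T. cruzi replicating inside host cells; inhibitors lower the luminescence signal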

Cc1cc(-c2ccc(C(C)C)c(S(=O)(=O)NCCN3CCC(C)CC3)c2)on1
EC50 [1]: > 260 µM (inactive)

CCc1cc2c(=O)c(-c3nc4ccccc4[nH]3)coc2cc1OC(=O)N1CCOCC1
AC50 (Cytochrome P450 3A4): 5.01 µM (inconclusive) | AC50 (Cytochrome P450 2C9): 8.91 µM (inconclusive)

CCNc1ncc2nc(-c3ccccc3)c(=O)n(CCOC)c2n1
AC50 (Cytochrome P450 3A4): 31.6 µM (inconclusive) | AC50 (Cytochrome P450 2C19): 31.6 µM (inconclusive) | AC50 (Cytochrome P450 2C9): 20 µM (inconclusive)

CCN(C(=O)c1cccc(S(=O)(=O)N2CCCCC2)c1)C1CCS(=O)(=O)C1 (configuration not stated)
EC50 [1]: > 260 µM (inactive)

N=c1sccn1CC(=O)Nc1cc(Cl)ccc1Oc1ccccc1
EC50 [1]: > 260 µM (inactive)

CCC(=O)N1CCN(c2ccc(NC(=O)COc3ccc(C)cc3C)cc2)CC1
EC50 [1]: > 260 µM (inactive)

CCOC(=O)c1c(-c2ccc(C)cc2)cn2ccccc12
EC50 [1]: > 260 µM (inactive)

Cc1cc(C)c(S(=O)(=O)N2CCN(c3ccc([N+](=O)[O-])c(NCc4ccco4)c3)CC2)c(C)c1
AC50 (Cytochrome P450 2C19): 0.708 µM (inconclusive) | AC50 (Cytochrome P450 2C9): 0.562 µM (inconclusive)

N=C(N)NS(=O)(=O)c1ccc(NC(=S)NC(=O)c2ccc(Br)cc2)cc1
EC50 [1]: > 260 µM (inactive)

Cc1ccc2[nH]c(SCC(=O)Nc3cccc(S(=O)(=O)NC4=NCCCCC4)c3)nc2c1
EC50 [1]: > 260 µM (inactive)

Cc1cc(-c2c(C)[nH]n(-c3ccc(Cl)cc3)c2=O)[nH]n1
EC50 (Streptococcus): > 150 µM (not active) | EC50 [2]: 2.51 µM (active)

Clc1ccc(CCNc2nc3ccccc3s2)cc1
AC50 (Cytochrome P450 2C9): 12.6 µM (inconclusive)

Nc1nc(S)nc2c1C1(CCCC1)Cc1ccccc1-2
AC50 (Cytochrome P450 2C19): 11.2 µM (inconclusive) | AC50 (Cytochrome P450 2C9): 0.355 µM (inconclusive)

CCOCCCn1cnc2c3ccc(OC)cc3nc-2c1O
AC50 (Cytochrome P450 2C9): 39.8 µM (inconclusive)

CCOc1ccccc1CN1CCN(Cc2cn(C)nc2-c2ccccc2)CC1CCO (configuration not stated)
EC50 [1]: > 260 µM (inactive)

Cc1oc(C(C)(C)C)cc1C(=O)Nc1cccc(/C=C/C(=O)O)c1
AC50 (Cytochrome P450 2C9): 4.47 µM (inconclusive)

O=[N+]([O-])c1ccc(N/N=C/c2sc(N3CCOCC3)nc2-c2ccccc2)c(S(=O)(=O)Nc2ccc(Cl)cc2)c1
AC50 (Paired box protein Pax-8): 1.99 µM (active)

N#CCCn1c(=O)c(-c2cccs2)nc2cnc(OCc3ccccc3)nc21
AC50 (Cytochrome P450 2C9): 1.58 µM (inconclusive)

O=C(CCCN1C(=O)/C(=C\c2ccccc2)SC1=S)Nc1ccc(O)cc1C(=O)O
EC50 (Protein RecA): 15.1 µM (active) | AC50 [3]: 15.4 µM (active)

COc1ccc2[nH]cc(CCNc3ccnc(-c4ccccc4Cl)n3)c2c1
AC50 (Cytochrome P450 2C9): 1 µM (inconclusive)

CCC(C)n1c(SCC(=O)NC(=O)Nc2ccc3c(c2)OCCO3)nc2ccccc2c1=O (configuration not stated)
EC50 [4]: > 60 µM (not active) | EC50 [5]: 2.2 µM (active) | EC50 [1]: > 260 µM (inactive)

CCOC(=O)c1nc(O)c2ccccc2c1O
EC50 (Protein RecA): 5.23 µM (active) | AC50 [3]: > 380 µM (inactive)

COC(=O)CN1C(=O)S/C(=C/c2ccc(N3CCCCC3)o2)C1=O
AC50 (Cytochrome P450 3A4): 15.8 µM (inconclusive) | AC50 (Cytochrome P450 2C19): 5.62 µM (inconclusive) | AC50 (Cytochrome P450 2C9): 5.62 µM (inconclusive)

Cc1cc(C)n(Cc2ccc(Cl)cc2Cl)c(=O)c1S(=O)(=O)c1ccccc1
EC50 [1]: > 260 µM (inactive)

Cc1n[nH]c2c1C(c1ccc(Cl)cc1)C(C#N)=C(N)O2 (configuration not stated)
EC50 (Protein RecA): 6.1 µM (active) | AC50 [3]: 9.8 µM (active)

O=C1CCN(Cc2ccccc2)N1
EC50 [1]: > 260 µM (inactive)

COCCCNC(=O)c1c(NC(=O)c2cccs2)sc2c1CCCC2
AC50 (Cytochrome P450 2C19): 4.47 µM (inconclusive) | AC50 (Cytochrome P450 2C9): 0.562 µM (inconclusive)

O=C(NCCN1Cc2ccccc2C1=O)c1cccs1
EC50 [1]: > 260 µM (inactive)

COc1cc(C(=O)OCC(=O)Nc2cc(C)on2)cc(OC)c1OC
AC50 (Cytochrome P450 3A4): 15.8 µM (inconclusive) | AC50 (Cytochrome P450 2C9): 0.0447 µM (inconclusive)

COc1cc(C(c2c(C)n[nH]c2O)c2c(C)n[nH]c2O)cc(Br)c1OC
EC50 (Protein RecA): 0.274 µM (active) | AC50 [3]: 0.756 µM (active)

Cc1ccc(S(=O)(=O)N2CCCCC2)cc1NC(=O)Cc1c[nH]c2ccccc12
AC50 (Paired box protein Pax-8): 19.5 µM (active)

COc1ccc(NC(=O)Nc2ccc3c(c2)C(=O)N([C@@H](C)CO)C[C@@H](C)[C@@H](CN(C)Cc2ccc(C(F)(F)F)cc2)O3)cc1
AC50 (Paired box protein Pax-8): 13.9 µM (active)

CC(C)NC(=O)N1CC[C@@]2(CCCN(S(C)(=O)=O)C2)C1
AC50 (Cytochrome P450 2C19): 39.8 µM (inconclusive) | AC50 (Cytochrome P450 2C9): 25.1 µM (inconclusive)

COCCNC(=O)c1cccc(OC2CCN(Cc3ccc(Cl)c(F)c3)CC2)c1
EC50 [1]: > 260 µM (inactive)

N#C/C(C(=O)NCc1ccccc1)=C1/N=C(NC(=O)c2ccco2)c2ccccc21
EC50 [1]: > 260 µM (inactive)

COc1ccc(Br)cc1[C@H]1[C@H]2C=CC[C@@H](C)[C@@H]2C(=O)N1Cc1ccccc1
EC50 (Protein RecA): 163 µM (active) | AC50 [3]: 2.46 µM (active)

CC(C)c1n[nH]c2c1C(c1cccc(OC(=O)N3CCOCC3)c1)C(C#N)=C(N)O2 (configuration not stated)
EC50 (Protein RecA): 5.8 µM (active) | AC50 [3]: 33.4 µM (active)

Clc1ccccc1-c1nc(NCc2cccs2)c2ccccc2n1
AC50 (Cytochrome P450 2C9): 0.794 µM (inconclusive)
